Source: the OPERA property sets (Mansouri et al. 2018)

SMILES	logP
CC[C@H]1OC(=O)C[C@@H](O)[C@H](C)[C@@H](O[C@@H]2O[C@H](C)[C@@H](O)[C@H](N(C)C)[C@H]2O)[C@@H](CCN2C[C@H](C)C[C@H](C)C2)C[C@@H](C)C(=O)C=CC(C)=C[C@@H]1CO[C@@H]1O[C@H](C)[C@@H](O)[C@@H](OC)[C@H]1OC	3.8
CO[C@@H]1[C@@H](O[C@@H]2O[C@H](C)[C@@H](O[C@H]3C[C@@](C)(O)[C@@H](OC(=O)CC(C)C)[C@H](C)O3)[C@H](N(C)C)[C@H]2O)[C@@H](CC=O)C[C@@H](C)C(=O)C=CC2OC2C[C@@H](C)OC(=O)C[C@H]1OC(C)=O (stereo not given in full)	3.04
CC[C@H]1OC(=O)[C@H](C)[C@@H](O[C@H]2C[C@@](C)(OC)[C@@H](O)[C@H](C)O2)[C@H](C)[C@@H](O[C@@H]2O[C@H](C)C[C@H](N(C)C)[C@H]2O)[C@](C)(O)C[C@@H](C)CN(C)[C@H](C)[C@@H](O)[C@]1(C)O	4.02
CCC1OC(=O)CC(O)C(C)C(OC2OC(C)C(O)C(N(C)C)C2O)C(CC=O)CC(C)C(=O)C=CC(C)=CC1CO (stereo not given)	0.99
CC[C@H]1OC(=O)[C@H](C)[C@@H](O[C@H]2C[C@@](C)(OC)[C@@H](O)[C@H](C)O2)[C@H](C)[C@@H](O[C@@H]2O[C@H](C)C[C@H](N(C)C)[C@H]2O)[C@](C)(O)C[C@@H](C)C(=O)[C@H](C)[C@@H](O)[C@]1(C)O	3.06
CC[C@H]1OC(=O)C[C@@H](O)[C@H](C)[C@@H](O[C@@H]2O[C@H](C)[C@@H](O[C@H]3C[C@@](C)(O)[C@@H](O)[C@H](C)O3)[C@H](N(C)C)[C@H]2O)[C@@H](CC=O)C[C@@H](C)C(=O)C=CC(C)=CC1CO[C@@H]1O[C@H](C)[C@@H](O)[C@@H](OC)[C@H]1OC (stereo not given in full)	1.63

Second part, the molecule after the results:

logP	SMILES
1.69	CO[C@H]1C[C@H](O[C@H]2[C@H](C)[C@@H](O[C@@H]3O[C@H](C)C[C@H](N(C)C)[C@H]3O)[C@@H](C)C[C@]3(CO3)C(=O)[C@H](C)[C@@H](O)[C@@H](C)[C@@H](C)OC(=O)[C@@H]2C)O[C@@H](C)[C@@H]1O
2.92	CCC1OC(=O)C(C)C(OC2CC(C)(OC)C(O)C(C)O2)C(C)C(OC2OC(C)CC(N(C)C)C2O)C(C)(O)CC(C)C(N)C(C)C2OC(=O)OC12C (stereo not given)
2.19	CCC1OC(=O)C[C@@H](O)[C@H](C)[C@@H](O[C@@H]2O[C@H](C)C[C@H](N(C)C)[C@H]2O)[C@@H](CC=O)C[C@@H](C)C(=O)C=C[C@]2(C)OC2C1C (stereo not given in full)
0.3	COC1C(OC(C)=O)CC(=O)OC(C)CC2OC2C=CC(=O)C(C)CC(CC=O)C1OC1OC(C)C(O)C(N(C)C)C1O (stereo not given)
